Data set [1] in a line: Transmittance of transparent cured film. In kind it is physicochemical. The conditions noted are these: for Average transmittance (700 nm to 400 nm) Transparent cured film / Transmittance (400 nm) Transparent cured film: cured at exposure energy quantity 80 mJ/cm^2. The protocol: Transparent cured films were formed by using the photosensitive compositions obtained in Examples 1 to 9, Examples 2-1 to 2-10, and Comparative Examples 1 and 2 in the same manner as in the evaluation 1 except that the exposure energy quantity was set to 80 mJ/cm^2. The transmittance (%) of each of the resultant transparent cured films at 400 nm and the average transmittance (%) thereof in the range of from 400 to 700 nm were measured with a spectrophotometer (manufactured by Hitachi High-Technologies Corporation, trade name: “U-3900H”, quartz cell, optical path length; 1 cm). A higher transmittance at 400 nm means less coloring with a yellow color. In addition, a higher transmittance of a coating film means a higher transmitting property of a pattern to be formed.

Data set [2] can be described thus: Absorption coefficient (absorbance of 0.001% solution in tetrahydrofuran). In kind it is physicochemical. As to conditions: for Λ max (absorption maximum wavelength): 0.001% (wt/vol) in tetrahydrofuran, from 280 nm to 400 nm; for Absorption coefficient at 365 nm / Absorption coefficient at Λ max: 0.001% (wt/vol) solution in tetrahydrofuran. How it is done:
A 0.001% (wt/vol) solution of each of the compounds 1, 2, 4, 6, 8, 9, 11, 12, 13, 15, 16, D-1, D-3, D-4, D-7, D-8, D-9, D-12, D-14, D-15, D-20, C-1, and C-2 in tetrahydrofuran was prepared, and its absorbance was measured with a spectrophotometer (manufactured by Hitachi High-Technologies Corporation, trade name: “U-3900H”). An absorption maximum wavelength (Amax) at a wavelength of from 280 nm to 400 nm was read from an absorption spectrum obtained with the spectrophotometer.

A short description of data set [3]: Evaluation 1: 20-μm pattern line width of transparent photosensitive composition. The conditions noted are these: for 20-μm pattern line width: transparent composition, initiator 0.4 mmol. The protocol:
After that, the mixture was filtered with a membrane filter having an aperture of 5 μm to provide a photosensitive composition.
It should be noted that the fluorene-based compound as a photopolymerization initiator was used in such an amount that its molar quantity was kept constant in the respective examples and comparative examples.
The glass substrate after the application was dried with a fan dryer at 90° C. for 10 minutes. Thus, a coating film (photosensitive layer) was formed. Next, the film was exposed to light having an exposure energy quantity of 5 mJ/cm^2, 10 mJ/cm^2, 20 mJ/cm^2, 40 mJ/cm^2, 60 mJ/cm^2, or 80 mJ/cm^2 by using a high-pressure mercury lamp (manufactured by Karl Suss, trade name: “MASK ALIGNER”) through a negative mask (mask width: 20 μm). Next, the resultant was immersed in a 0.1 wt % aqueous solution of tetramethylammonium hydroxide (TMAH) and then rinsed with pure water. The remaining cured film was subjected to the following evaluation.
A larger value for the line width means higher sensitivity.

Data set [4] can be described thus: Decomposition point by thermal analysis (TG-DTA). It is filed as physicochemical. The conditions noted are these: 5.0 mg. How it is done:
The compounds 1, 2, 4, 6, 8, 9, 11, 12, 13, 15, 16, D-1, D-3, D-4, D-7, D-8, D-9, D-12, D-14, D-15, D-20, C-1, and C-2 were each subjected to measurement with a thermal analysis apparatus (TG-DTA) (manufactured by Rigaku Corporation, trade name: “Thermo Plus EVO TG 8120”) by using 5.0 mg thereof.

The nature of data set [5]: Average transmittance of composition. The conditions noted are these: photosensitive composition, quartz cell, optical path length 1 cm. It is filed as physicochemical. How it is done:
The average transmittance (%) of each of the photosensitive resin compositions obtained in Examples 1 to 9, Examples 2-1 to 2-10, and Comparative Examples 1 and 2 in the range of from 400 nm to 700 nm was measured with a spectrophotometer (manufactured by Hitachi High-Technologies Corporation, trade name: “U-3900H”, quartz cell, optical path length; 1 cm).

The mark [6] stands for this setting: exposure energy quantity 10 mJ/cm^2.
[7] abbreviates: exposure energy quantity 20 mJ/cm^2.
Where [8] appears, read: exposure energy quantity 40 mJ/cm^2.
Setting [9] is: exposure energy quantity 60 mJ/cm^2.
Where [10] appears, read: exposure energy quantity 80 mJ/cm^2.
Where [11] appears, read: photopolymerization initiator containing the compound.

For the molecule `CCCCCCC1(CCCCCC)c2cc(C(=O)c3ccc([N+](=O)[O-])cc3)ccc2-c2ccc(C(CC(C)N(OC(C)=O)C(C)=O)=NOC(C)=O)cc21` (racemic) [Compound 12], the “Average transmittance (700 nm to 400 nm) Transparent cured film” value in data set [1] amounted to 99.8%. Further, the “Transmittance (400 nm) Transparent cured film” value in data set [1] was found to be 99.7%. The “Λ max (absorption maximum wavelength)” value in data set [2] stood at 335.5 nm. Moreover, the “Absorption coefficient at 365 nm” value in data set [2] is 11.8 mL/mg/cm. Also, the “Absorption coefficient at Λ max” value in data set [2] turned out to be 43.0 mL/mg/cm. The “20-μm pattern line width” value in data set [3] (setting [6]) is 19.8; in data set [3] (setting [7]), 20.0; in data set [3] (setting [8]), 21.0; in data set [3] (setting [9]), 21.2; in data set [3] (setting [10]), 21.5. Also, the Decomposition point in data set [4] is 195.2 °C. For the same molecule, in data set [5], the “Average transmittance (700 nm to 400 nm) Solution” value came out at 77.8%.
`CCCCCCC1(CCCCCC)c2cc(C(=O)c3cccs3)ccc2-c2ccc(C(CC(C)N(OC(C)=O)C(C)=O)=NOC(C)=O)cc21` (racemic) [Compound 11]: in data set [1], the “Average transmittance (700 nm to 400 nm) Transparent cured film” value amounted to 100.0%. The “Transmittance (400 nm) Transparent cured film” value in data set [1] was determined as 99.1%. Further, the “transparency of photosensitive composition and formed product (in words)” value in data set [1] (setting [11]) is “additionally excellent transparency”. Also, the “Λ max (absorption maximum wavelength)” value in data set [2] amounted to 333.5 nm. In addition, in data set [2], the “Absorption coefficient at 365 nm” value came to 6.6 mL/mg/cm. For the same molecule, in data set [2], the “Absorption coefficient at Λ max” value was 55.0 mL/mg/cm. Further, the “sensitivity to the active energy ray (in words)” value in data set [3] (setting [11]) was “additionally high sensitivity to the active energy ray”. The “20-μm pattern line width” value in data set [3] (setting [6]) was 19.9; in data set [3] (setting [7]), 20.5; in data set [3] (setting [8]), 21.9; in data set [3] (setting [9]), 22.5; in data set [3] (setting [10]), 22.8. The same molecule yielded a Decomposition point in data set [4] of 257.3 °C. Also, the “Average transmittance (700 nm to 400 nm) Solution” value in data set [5] is given as 93.0%.
`CCCCCCC1(CCCCCC)c2cc(C(=O)C(=NOC(C)=O)c3cc(C)ccc3C)ccc2-c2ccc(C(=O)c3ccc([N+](=O)[O-])cc3)cc21` [Compound 13]: in data set [1], the “Average transmittance (700 nm to 400 nm) Transparent cured film” value is listed as 99.4%. Moreover, the “Transmittance (400 nm) Transparent cured film” value in data set [1] stood at 97.0%. In data set [2], the “Λ max (absorption maximum wavelength)” value was determined as 338.5 nm. Moreover, in data set [2], the “Absorption coefficient at 365 nm” value came to 9.2 mL/mg/cm. In addition, in data set [2], the “Absorption coefficient at Λ max” value was found to be 36.3 mL/mg/cm. The “20-μm pattern line width” value amounted to 19.4 in data set [3] (setting [6]); 19.6 in data set [3] (setting [7]); 19.8 in data set [3] (setting [8]); 20.6 in data set [3] (setting [9]); 21.0 in data set [3] (setting [10]). This molecule showed a Decomposition point in data set [4] of 167.1 °C. Further, in data set [5], the “Average transmittance (700 nm to 400 nm) Solution” value is listed as 79.2%.

For the origin of these results see patent publication US9684238B2, “Fluorene-type compound, photopolymerization initiator comprising said fluorene-type compound, and photosensitive composition containing said photopolymerization initiator” (TOKYO OHKA KOGYO CO., LTD., priority 2012, dated 2017).
